Entries after “also recorded” stand apart in the source; their conditions may differ. Strand notation (5' to 3'): a small letter for the sugar, then the base; units joined by * are phosphorothioate-linked, units joined directly phosphodiester-linked; [ ] holds rarer units or linkages, { } end groups; capitals alone tell only the bases. d = 2'-deoxy (DNA)
Experiments:
[1] = system: human mesenchymal stem cells (hMSCs); assay: Alizarin red staining for calcium phosphate deposits (ECM mineralization, bone cell maturation); assay type: cell-based; details: OS started three days after siRNA transfection and continued for 9 days
Protocol: Cells were rinsed with PBS twice, stained in alizarin red solution (cat# vw3611-2, VWR) for 8 minutes at room temperature, washed with PBS again, fixed in 10% formalin solution (cat# HT-5014, Sigma) for 20 minutes, then rinsed with water and air dried.
Bone cell maturation is accompanied by extracellular matrix (ECM) mineralization (John Bilezikian et al., Principles of bone biology, Vol 1, 2nd edn: Academic Press) (2002)). […] […] These observations are consistent with the conclusion that the targeted genes of the ten effective hit siRNAs not only play inhibitory roles in osteogenic specification of hMSCs, but also in bone cell maturation. […] Furthermore, in osteoporotic patients, the number of adipocytes was increased in the marrow, implying a change of cell fate disposition from osteoblast lineage to adipocyte lineage (Justesen, J. et al., Biogerontology 2:165-171 (2001); Meunier, P. et al., Clin Orthop Relat Res 80:147-154 (1971)). We therefore examined the effect of our hit siRNAs on adipogenic differentiation of hMSCs by combined treatment with an adipogenic inducing cocktail (100 μg/ml IBMX, 1 μM DEX and 10 μg/ml insulin).

BMP-2, PLZF, TAZ = assay: RT-PCR of positive regulators of osteogenesis; assay type: cell-based, human; details: samples collected on day 7 or day 12 after siRNA transfection
Protocol: Total RNA from each sample was prepared from around 5×10(4) cells using RNAeasy mini kit from Qiagen and further treated with Turbo DNA-Free (cat# 1907, Ambion) to prevent DNA contamination. Reverse transcription was carried out using SuperScript First-Strand Synthesis System for RT-PCR (cat# 11904-018, Invitrogen) or Qiagen OneStep RT-PCR kit (cat# 210210) as instructed. PCR primers used were as follows: […]
To test their roles in our siRNA induced osteogenic differentiation, RT-PCR was performed on these genes. […] In addition, MAPK signaling pathways have been shown activated in the OS treated hMSCs, and inhibition of these pathways suppresses OS induced osteogenesis (FIG. 9b) (Jaiswal, R. K. et al., J Biol Chem 275:9645-9652 (2000)).

[2] = system: human mesenchymal stem cells (hMSCs); assay: Alkaline phosphatase (ALP) activity staining of siRNA-transfected hMSCs (osteogenic differentiation screen); assay type: cell-based; details: for ALP activity induced by the hit siRNAs or OS, on co-transfection: co-transfected with each hit siRNA, compared to siCon co-transfection
Protocol: (§1) The human mesenchymal stem cells (hMSCs, PT-2501) were purchased from Cambrex Inc. and cultured as instructed by the supplier. Cells were expanded to passage 5 before being used for siRNA library screen. Briefly, diluted Xtreme-siRNA transfection reagent (cat# 4 476 115 00, Roche) (0.12 μl Xtreme in 14 μl DMEM) was mixed with pre-spotted siRNA (14 ng/well) in each well of 384-well plates for one hour. Cells (4000/well) in 60 μl media (no antibiotics) were then added using automated dispenser (Multidrop 384, Thermo LabSystems) (siRNA final concentration at around 15 nM). Transfection was allowed to continue for 8 hours before first media renewal. After 7 days of culture, cells were stained for alkaline phosphatase (ALP) activity (cat# 86R-1KT, Sigma). Post-screen assays were done in 96-well plates and siRNA was transfected at the concentration of 30 nM at the cell density of 8000 cells/well. CRE decoy oligonucleotide and control oligonucleotide (phosphorothioate bond modification on all nucleotides) (Park, Y. G. et al., J Biol Chem 274:1573-1580 (1999)) were transfected into cells similarly as siRNA using Xtreme-siRNA transfection reagent, except that the final DNA concentration was 90 nM. Control siRNA (siCon) used in the screen contains a pool of 50 scrambled sequences that have at least 4 mismatches to known human transcripts and ESTs, and at least 2-3 mismatches to the whole human genome. siCon used in target characterization after primary screen was purchased from Dharmacon (D-001210-01-05), which was bioinformatically designed to have >=4 mismatches with known human and mouse genes. siTOX was also purchased from Dharmacon (D-001500-01-05).
Fifty five hits that gave rise to a significant increase of ALP activity on day 7 after siRNA transfection in hMSCs were identified and confirmed (FIG. 2a & Table 1).

[3] = system: human mesenchymal stem cells (hMSCs); assay: Oil Red O staining, adipogenic differentiation with adipogenic inducing media; assay type: cell-based
Protocol: Cells were rinsed with PBS twice, fixed in 10% formalin solution for 20 minutes, rinsed with PBS twice and dH2O once, washed with propylene glycol for 5 minutes, and stained with Oil red in propylene glycol (I2722A, Newcomer Supply) for 30 minutes. Cells were then washed with 85% propylene glycol for 5 minutes, rinsed with dH2O 3 times and preserved in 50% glycerol.
Bone cell maturation is accompanied by extracellular matrix (ECM) mineralization (John Bilezikian et al., Principles of bone biology, Vol 1, 2nd edn: Academic Press) (2002)). To examine whether the osteogenic differentiation of hMSCs induced by the hit siRNAs can further proceed to the maturation stage, hit siRNA treated cells were cultured for 20 days. […] These observations are consistent with the conclusion that the targeted genes of the ten effective hit siRNAs not only play inhibitory roles in osteogenic specification of hMSCs, but also in bone cell maturation. […] Furthermore, in osteoporotic patients, the number of adipocytes was increased in the marrow, implying a change of cell fate disposition from osteoblast lineage to adipocyte lineage (Justesen, J. et al., Biogerontology 2:165-171 (2001); Meunier, P. et al., Clin Orthop Relat Res 80:147-154 (1971)). […]

[4] = system: human mesenchymal stem cells (hMSCs); assay: Compound treatment: OS-induced osteogenic differentiation of hMSCs (ALP / alizarin red staining); assay type: cell-based; details: compound combined with OS treatment; ALP and/or alizarin red staining
Protocol: 8-CPT-cAMP, Na (cat# 116812), 5-Iodotubercidin (cat# 407900), Prostaglandin E2 (PGE2, cat# 538904), SB 202190 (cat# 559388) and U0126 (cat# 662005) were purchased from Calbiochem; N6,2′-O-Dibutyryl-cAMP (cat# D0260-5MG), forskolin (cat# F6886), ascorbic acid 2-phosphate (cat# 49752-10G), β-glycerophosphate (G-6251), dexamethasone (D8893), 3-isobutyl-1-methylxanthine (IBMX, I5879) and Insulin (I 9278) were purchased from Sigma/Aldrich/Fluka.
Since the targeted genes are all positively involved in intracellular cAMP signaling, we tested the effect of two compounds of opposing function on cAMP production on osteogenic differentiation of hMSCs, ADK inhibitor 5-iodotubercidin and ADCY activator forskolin (Cottam, H. B. et al., J Med Chem 36:3424-3430 (1993); de Souza, N. J. et al., Med Res Rev 3:201-219 (1983)). […] ATP has been shown as a ligand for P2RY11 receptor (Communi et al., 1997). […] The present observations are consistent with the conclusion that […] in hMSCs, and vice versa.

CREB = assay: CRE decoy transfection followed by osteogenic or adipogenic induction media; assay type: cell-based, human; details: 90 nM oligonucleotide, vs CRE mismatch control; for adipogenic differentiation after decoy transfection: adipogenic induction media
Protocol: as §1
To find out whether CREB (cAMP Responding Element Binding protein), a common downstream effector of cAMP signaling pathway, is involved in mediating cAMP signaling controlled differentiation of hMSCs, we checked the expression level of the active form of CREB proteins in cells 3 days after siP2RY11, siADK, siGNAS, siSLC12a2 or siCon transfection. […]

ERK1/2 and p38 = assay: Western blot of phosphorylated ERK1/2 and p38; assay type: cell-based, human; details: 72 hours after transfection
Protocol: Cell lyses buffer contains 20 mM Tris pH8.0, 1 mM EDTA, 150 mM NaCl and 0.5% NP-40, and before usage, protease inhibitor cocktail (Cat# p8340, Sigma, 1:100 dilution) and phosphatase inhibitor cocktail 2 (Cat# p5726, sigma, 1:100 dilution) were added. Proteins (60 μg/well) were separated in 12% Novex Tris-Glycine gel (Cat# EC6008 box, Invitrogen) and transferred to Nitrocellulose membrane (Cat# LC2001, Invitrogen) using the XCell II blot module system (Cat# EI9051, Invitrogen). The membrane was blocked in 5% milk/PBST for 1 hour at room temperature, incubated over night at 4 degree with primary antibody, washed 3 times with PBST (0.05% Tween 20 in PBS), followed by one hour incubation with secondary antibody in 5% milk/PBST and 3 times wash with PBST at room temperature. For antibody against pCREB however, PBST was substituted with PBS in all steps except for the last one. Antibody-bound proteins were detected utilizing ECL Western blotting detection reagent (Amersham Biosciences).
Anti-phospho-CREB was purchased from Upstate Biotechnology (cat# 06-519); Anti-phospho-p38 was purchased from Cell signaling technology (cat# 9910).
We therefore examined the activation status of ERK1/2 and p38 in the siDUSP6 treated hMSCs along with other siRNA treated samples by western blot using antibodies against the phosphorylated form of the protein at 72 hours after transfection (FIG. 9c).

CAGAUGCAUCGACCAAAAC (siRNA; listed as RNA, chemistry not fully specified) [siMJD, siRNA targeting Machado-Joseph disease (ataxin 3)]
intensity of alizarin red staining (bone cell maturation), 3+9OS [1]: no significant effect
expression of PLZF (RT-PCR) (BMP-2, PLZF, TAZ): detected; also recorded: induced

CGGUCACGGAUGACGACUA (listed as RNA, chemistry not given here) [siCOMP, siRNA targeting cartilage oligomeric matrix protein]
osteogenic differentiation (alkaline phosphatase activity) ([2]; 9 days after siRNA transfection): induces osteogenic differentiation
adipogenesis induced by adipogenic inducing media (Oil Red O) ([3]; Adipo on the third day after siRNA transfection, continued for 12 days): enhances adipogenesis

Nc1ncnc2c1c(I)cn2[C@@H]1O[C@H](CO)[C@@H](O)[C@H]1O [5-iodotubercidin]
adipogenic differentiation of hMSCs (oil red o staining), compound ([3]; adipogenic inducing media plus compound): inhibited the adipogenic differentiation of hMSCs in a dose dependent manner
osteogenic effect of the OS media on hMSCs [4]: significantly enhanced; also recorded: enhanced the osteogenic effect of the OS media

5′-TGACGTCATGACGTCATGACGTCA-3′ (DNA dT*dG*dA*dC*dG*dT*dC*dA*dT*dG*dA*dC*dG*dT*dC*dA*dT*dG*dA*dC*dG*dT*dC*dA) [CRE decoy, synthetic 24-mer CRE decoy palindrome oligonucleotide, phosphorothioate bond modification on all nucleotides]
adipogenic differentiation after decoy transfection (CREB): inhibited cells from undergoing adipogenic differentiation
adipogenic differentiation after decoy transfection (CREB; listed as CRE (CREB responding element) decoy): less responsive
osteogenic differentiation after decoy transfection (CREB; osteogenic induction media (OS), listed as CRE (CREB responding element) decoy): less responsive

UAGUAGAGAUAUGGAGUGCtg (antisense); GCACUCCAUAUCUCUACUAtt (sense) (chain 1 UAGUAGAGAUAUGGAGUGCTG; chain 2 GCACUCCAUAUCUCUACUATT; chemistry not given here) [CBFA1 siRNA, CBFA 1-specific siRNA]
ALP activity induced by the hit siRNAs or OS, on co-transfection [2]: reduced the level of ALP activity
ALP activity induced by the hit siRNAs or OS, on co-transfection ([2]; listed as siCbfa 1): reduced

CUGUGGUGUCUUGGUACAU (listed as RNA, chemistry not given here) [siDUSP6, siRNA targeting dual specificity phosphatase 6]
phosphorylated (active) p38 level (Western blot) (ERK1/2 and p38): increased level; also recorded: up regulated
intensity of alizarin red staining (bone cell maturation), 3+9OS [1]: modest enhancement

— US7601501B2, “Controlling osteogenesis by inhibition of osteogenic suppressors” (The Scripps Research Institute, priority 2006, dated 2009)
